Test results as given in patent EP0705603A1, “Use of non-toxic cysteine sulfoxide derivatives in the treatment of cancer or for enhancing the T-cell count” (priority 1994, dated 1996).

Test: Toxicity after intravenous administration to patients
Assay type: in vivo, patient
Procedure: Aqueous solutions of t-butyl hydroperoxide are prepared by dissolving 50 ml of a 70% aqueous solution of t-butyl hydroperoxide in 1 litre of normal (0.9%) saline. 15-30 ml of this solution is given intravenously over a period of up to about 15 minutes.
Aqueous solutions of methyl, ethyl, propyl and butyl cysteine sulfoxide are prepared by dissolving 100 gram of the respective sulfoxide in 1 litre of normal (0.9%) saline. 30-60 ml of this solution (delivering an approximate […] dose of the sulfoxide) is given intravenously.
An aqueous solution of L-cystine is prepared by first dissolving 80 grams of N-methyl-D-glucamine in 1 litre of normal (0.9%) saline and the dissolving in 40 g of L-cystine. 50 to 60 ml of the solution (delivering an approximately 2 g dose of cystine) is given intravenously.
An aqueous solution of oxidised glutathione is prepared by dissolving 40 grams in 1 litre of normal (0.9%) saline. 50-60 ml of this solution (delivering an approximately 2 g dose of oxidised glutathione) is given intravenously.
The t-butyl hydroperoxide solution is administered by intravenous infusion over a period of up to about 15 minutes. This is then followed immediately by intravenous infusion of the sulfoxide, optionally with cystine and/or oxidised glutathione solutions, and then (within three minutes) Ultra High Frequency microwave radiation is commenced and is delivered over the next 20 - 30 minutes. 1 or 2 rest intervals of 2 to 3 minutes each are permitted during this application. Three such treatment sessions may be undertaken per day.
No immediate or late changes in blood pressure, renal or liver function, electrolytes or haematology have been seen from the method.

Compound | symptoms suggestive of any toxicity (human, in vivo, iv) | further results
CC(C)(C)OO [t-butyl hydroperoxide] | – | volume of saline solution of oxidising agent that can safely and effectively be administered (70% t-butyl hydroperoxide in water diluted in normal (0.9%) saline, intravenous, over about 5 minutes): 60 mL; symptoms suggestive of any toxicity (after the intravenous administration): No symptoms suggestive of any toxicity
CCCC[S+]([O-])CC(N)C(=O)O (stereo not drawn) [butyl cysteine sulfoxide] | No symptoms suggestive of any toxicity | –
C=CC[S+]([O-])CC(N)C(=O)O (stereo not drawn) [allyl cysteine sulfoxide] | No symptoms suggestive of any toxicity | –
CC[S+]([O-])CC(N)C(=O)O (stereo not drawn) [ethyl cysteine sulfoxide] | No symptoms suggestive of any toxicity | –
CCC[S+]([O-])CC(N)C(=O)O (stereo not drawn) [propyl cysteine sulfoxide] | No symptoms suggestive of any toxicity | –
C[S+]([O-])CC(N)C(=O)O (stereo not drawn) [methyl cysteine sulfoxide] | No symptoms suggestive of any toxicity | –
N[C@@H](CSSC[C@H](N)C(=O)O)C(=O)O [L-cystine] | No symptoms suggestive of any toxicity | NOAEL (human, in vivo, iv): > 100 mg/kg
